In PubChem BioAssay (NCI):
Values joined by “and” are separate entries in the source; they are usually repeats but may differ in a detail not shown here. Equal values may be shown once.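 These data come from cells grown in 96-well plates and exposed to compound for 48 hours at five concentrations. The concentration for 50% growth inhibition is given as GI50. TGI is the concentration that stops growth completely.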

Tests used:
Assay in all cases: NCI anticancer screen, dose series, 48 h
A498 renal = system: A498 renal
EKVX NSCLC = system: EKVX NSCLC
HCC-2998 colon = system: HCC-2998 colon
HCT-116 colon = system: HCT-116 colon
OVCAR-3 ovarian = system: OVCAR-3 ovarian
SF-539 CNS = system: SF-539 CNS
SNB-75 CNS = system: SNB-75 CNS
U251 CNS = system: U251 CNS
786-0 renal = system: 786-0 renal
HS 578T breast = system: HS 578T breast
M14 melanoma = system: M14 melanoma

SMILES	TGI (A498 renal)	TGI (EKVX NSCLC)	TGI (HCC-2998 colon)	TGI (HCT-116 colon)	TGI (OVCAR-3 ovarian)	TGI (SF-539 CNS)	TGI (SNB-75 CNS)	TGI (U251 CNS)	TGI (786-0 renal)	TGI (HS 578T breast)	TGI (M14 melanoma)	GI50 (A498 renal)	GI50 (HCC-2998 colon)	GI50 (HS 578T breast)
COC(=O)[C@@H]1c2cc3c(c(O)c2[C@@H](OC)C[C@@]1(C)O)C(=O)c1c(O)cc2c(c1C3=O)OC1O[C@@]2(C)[C@H](O)[C@@H](N(C)C)[C@@H]1O	0.764 µM	1.33 µM	1.37 µM	1.58 µM	1.69 µM	7.48 µM	0.977 µM	1.92 µM						
Nc1nc2c(ncn2CCOC(c2ccccc2)P(=O)(O)O)c(=O)[nH]1 (stereo unspecified)	> 100 µM	> 100 µM	> 100 µM	> 100 µM	> 100 µM	> 100 µM	> 100 µM	> 100 µM	> 100 µM					
CC(C)(C)OC(=O)C1=C(C(=O)OC(C)(C)C)SC2(S1)C(C(=O)OC(C)(C)C)=C(C(=O)OC(C)(C)C)Sc1c2ssc1=O	> 100 µM	> 100 µM	> 100 µM	> 100 µM	> 100 µM			> 100 µM		> 100 µM	> 100 µM			
OCCSCCCSCCO		> 100 µM	> 100 µM	> 100 µM	> 100 µM	> 100 µM	> 100 µM	> 100 µM	> 100 µM		> 100 µM			
OC(c1cccs1)c1cc2ccccc2s1 (stereo unspecified)		> 10 µM	> 10 µM	> 10 µM	> 10 µM	> 10 µM	> 10 µM	> 10 µM	> 10 µM	> 10 µM	> 10 µM			
C=CC1OC(CCCOC(=O)C(C)(C)C)O[C@@H]1CC (stereo partly specified)	> 100 µM	> 100 µM			> 100 µM	> 100 µM	> 100 µM	> 100 µM		> 100 µM	> 100 µM			
CN(C)CCNCc1c2ccccc2c(CNCCN(C)C)c2ccccc12	55.9 µM	> 100 µM	23.8 µM	> 90.1 µM	> 100 µM	> 73.6 µM	> 100 µM	56.9 µM						
COC(=O)C1=NN2c3ccccc3C(=O)OCCC2C1 (stereo unspecified)	> 100 µM	> 100 µM	> 100 µM	> 100 µM	> 100 µM	> 100 µM	> 100 µM	> 100 µM	> 100 µM	> 100 µM				
CCOC(=O)CCC(C(=O)OCC)n1nc2ccc(Nc3c(C)[n+]([O-])c4cc(Cl)ccc4[n+]3[O-])cc2n1 (stereo unspecified)	> 100 µM	> 100 µM		> 100 µM	> 100 µM	> 100 µM	> 100 µM	> 100 µM	> 100 µM	> 100 µM	> 100 µM			
Cc1cc2c(c3oc(C(O)(CO)C4CO4)cc(=O)c13)C(=O)c1c(O)cccc1C2=O (stereo unspecified)	0.00403 µM	0.0171 µM and 0.0378 µM	0.00727 µM and 0.00365 µM and 0.0112 µM			0.000212 µM	0.00395 µM and 0.000596 µM	0.00411 µM		0.0078 µM		0.00375 µM	0.000169 µM	0.000702 µM
Cc1cccc(-c2cc(=O)c3ccc(C)nc3[nH]2)c1	> 51.1 µM	> 100 µM	27.4 µM	> 20.4 µM	0.503 µM	14.6 µM	49.2 µM	> 100 µM	> 100 µM		> 100 µM			
O=C1CN(c2ccc(Cl)cc2)C(=O)CN1CCN1CC(=O)N(c2ccc(Cl)cc2)CC1=O	> 100 µM	> 100 µM	> 100 µM	> 100 µM	> 100 µM		> 100 µM	> 100 µM	> 100 µM	> 100 µM	> 100 µM			
Cn1c(-c2csc(-c3ccc(Cl)cc3)n2)n[nH]c1=S		> 100 µM	> 100 µM	40.9 µM	34.9 µM	46.7 µM	39.8 µM		32.2 µM	83.7 µM	> 100 µM			
c1ccc2nc3[nH]c4ccccc4c3cc2c1	43.1 µM	4.8 µM	2.85 µM			1.23 µM	6.44 µM	1.99 µM	1.16 µM	5.84 µM	1.85 µM			
CC(C)(C)c1cc(-c2ccc(-c3cc(C(C)(C)C)c(O)c(C(C)(C)C)c3)cc2)cc(C(C)(C)C)c1O	> 100 µM	> 100 µM		> 100 µM	> 100 µM	> 100 µM	> 100 µM	> 100 µM	> 100 µM		> 100 µM			
C=C(C)C1Cc2c(cc(O)c3c(=O)c4ccccc4n(C)c23)O1 (stereo unspecified)	92.6 µM		> 100 µM	> 100 µM			37.2 µM	> 100 µM			90.4 µM			
N#CC1C(=O)Nc2sc(C(=O)c3ccc(Br)cc3)c(N)c2C12CCCCC2 (stereo unspecified)	63.6 µM	> 100 µM	57.7 µM	> 100 µM	52.7 µM	42.6 µM	> 100 µM	> 100 µM	> 100 µM		39 µM			
O=[N+]([O-])c1ccc(NC2OCC(O)C(O)C2O)cc1 (stereo unspecified)	> 100 µM	> 100 µM	> 100 µM		> 100 µM	> 100 µM	> 100 µM	> 100 µM	> 100 µM		> 100 µM			
COc1ccc(C(=O)N2CCN(c3ccc4c(c3)OCC(=O)N4)CC2)cc1		> 100 µM	> 100 µM	> 100 µM	> 100 µM	> 100 µM	> 100 µM	> 100 µM	> 100 µM	> 100 µM	> 100 µM			
O=c1nc2n(cc1/C=C\Br)C1CC(O)C(CO2)O1 (stereo unspecified)	> 100 µM	> 100 µM	> 100 µM	> 100 µM	> 100 µM	> 100 µM	> 100 µM	> 100 µM	> 100 µM					
C=C(C)CCC1CCCCC(CN(C)C)C1=O (stereo unspecified)	> 100 µM	> 100 µM		> 100 µM	> 100 µM	> 100 µM	> 100 µM	> 100 µM	> 100 µM	> 100 µM	> 100 µM			
